Laboratory results from US7276347B2 (priority 2004, dated 2007).

Tests used:
[1] = test system: antibodies to HCY Oxime-BTG (example 4a); type: binding, mice
[2] = test system: monoclonal antibody to HCY Oxime-KLH (example 4b); type: binding, mice

SMILES	% Cross-Reactivity [1] [%]	IC 50 [1]	% Cross-Reactivity [2] [%]	IC 50 [2]
O=P1(N(CCCl)CCCl)NCCCO1 (stereo not drawn) [cyclophosphamide]	<0.3	>10,000 ng/ml	<0.1	>100,000 ng/ml
N[C@@H](Cc1ccc(N(CCCl)CCCl)cc1)C(=O)O [Melphalan, melphalan]	<0.3	>10,000 ng/ml	<0.1	>100,000 ng/ml
O=C(O)CCCc1ccc(N(CCCl)CCCl)cc1 [Chlorambucil, chlorambucil]	<0.3	>10,000 ng/ml	<0.1	>100,000 ng/ml
